Reference: patent publication US20250041175A1, “COMPOSITION FOR SMOOTHING THE SKIN AND/OR THE LIPS” (L V M H RECHERCHE, priority 2021, published 2025)

Assay: Penetration of polyglycerols into the layers of the skin, 7T-MALDI-FT-ICR mass spectrometry imaging (MSI)
Format: in vitro ADME
Conditions: sections of human skin, preliminary study

Row | Substance | depth of penetration at the surface layers of the skin (epidermis and superficial dermis) | penetration speed of polyglycerols
1 | Polyglycerol-5 | penetrate less deeply than polyglycerol-3 or polyglycerol-4 | –
2 | polyglycerol-3 | reaches the superficial dermis very quickly | penetrates rapidly
3 | polyglycerol-4 | stationed in the superficial dermis | penetrates more quickly
